The record followed here is patent US10072011B2, “Substituted bridged urea analogs as sirtuin modulators” (GlaxoSmithKline Intellectual Property (No.2) Limited, priority 2014, dated 2018).

The structures appear in SMILES notation. A value given as a limit tells only on which side of the number the result lay.

The target of this experiment is T1, SIRT1 (Homo sapiens, UniProt Q96EB6).
T1 sequence (Q96EB6 1-747): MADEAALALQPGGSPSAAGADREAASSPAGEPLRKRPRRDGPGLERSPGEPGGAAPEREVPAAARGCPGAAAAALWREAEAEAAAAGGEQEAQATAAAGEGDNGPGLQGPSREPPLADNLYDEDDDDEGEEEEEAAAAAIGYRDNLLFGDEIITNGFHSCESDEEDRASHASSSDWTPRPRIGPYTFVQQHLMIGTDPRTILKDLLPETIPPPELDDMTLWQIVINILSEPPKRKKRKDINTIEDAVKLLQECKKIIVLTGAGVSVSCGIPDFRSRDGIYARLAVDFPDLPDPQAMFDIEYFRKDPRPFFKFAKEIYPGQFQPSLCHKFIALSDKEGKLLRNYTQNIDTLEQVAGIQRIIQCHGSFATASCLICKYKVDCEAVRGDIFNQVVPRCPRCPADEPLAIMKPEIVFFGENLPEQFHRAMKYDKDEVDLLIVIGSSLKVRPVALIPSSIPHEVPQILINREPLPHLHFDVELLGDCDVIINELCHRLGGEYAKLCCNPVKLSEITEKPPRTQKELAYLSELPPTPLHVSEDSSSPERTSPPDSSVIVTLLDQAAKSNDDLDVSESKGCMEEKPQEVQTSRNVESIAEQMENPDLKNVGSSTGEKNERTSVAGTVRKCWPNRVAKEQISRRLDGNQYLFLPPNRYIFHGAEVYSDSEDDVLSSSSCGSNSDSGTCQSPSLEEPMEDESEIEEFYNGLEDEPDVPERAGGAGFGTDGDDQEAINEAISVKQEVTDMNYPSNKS
The experiment is described as follows: Trp mass spectrometry assay of SIRT1 activation (Ac-R-H-K-K(Ac)-W-NH2 peptide). The conditions noted are these: Trp peptide 0.5 μM, 120 μM βNAD+, 10 nM SIRT1, 25 min at 25° C.; for Emax: 25 min, relative to control (100%), read-out: TRP MAX RESP (percent maximum fold activation). The class given is biochemical. The procedure, abridged: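 N-terminal His-tagged human SIRT1, expressed in BL21(DE3) and purified, was incubated 25 min with an acetylated Trp peptide and NAD plus test compound at varying concentrations, then quenched with formic acid. OAADPR or deacetylated peptide was quantified by mass spectrometry versus compound-free control; EC1.5 is the concentration giving 50% activity increase, with percent maximum activation.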

Turning to `O=C(NCC(F)(F)F)c1ccc2c(n1)N(C(=O)Nc1ccc(F)cn1)[C@H]1CCN2C1` [Example 70, (4S)—N5-(5-fluoropyridin-2-yl)-N7-(2,2,2-trifluoroethyl)-3,4-dihydro-1,4-methanopyrido[2,3-b][1,4]diazepine-5,7(2H)-dicarboxamide], the Emax is over 150% and the “TRP Activity (EC1.5, concentration of test compound that results in 150% activation of SIRT1)” value is reported as “A (EC1.5<1 μM)”.

As to `O=C(NC[C@@H](O)C(F)(F)F)c1ccc2c(n1)N(C(=O)Nc1ccc(F)cn1)[C@H]1CCN2C1` [Example 71, (4S)—N5-(5-fluoropyridin-2-yl)-N7-((R)-3,3,3-trifluoro-2-hydroxypropyl)-3,4-dihydro-1,4-methanopyrido[2,3-b][1,4]diazepine-5,7(2H)-dicarboxamide], the Emax was over 150% and the “TRP Activity (EC1.5, concentration of test compound that results in 150% activation of SIRT1)” value is “A (EC1.5<1 μM)”.

On to `CC(C)(C)CNC(=O)c1ccc2c(n1)N(C(=O)Nc1ccc(F)cn1)[C@H]1CCN2C1` [Example 73, (4S)—N5-(5-fluoropyridin-2-yl)-N7-neopentyl-3,4-dihydro-1,4-methanopyrido[2,3-b][1,4]diazepine-5,7(2H)-dicarboxamide], for which the Emax is over 150% and the “TRP Activity (EC1.5, concentration of test compound that results in 150% activation of SIRT1)” value was “A (EC1.5<1 μM)”.

As to `C[C@@H](NC(=O)c1ccc2c(n1)N(C(=O)Nc1cc(OC[C@H](O)CO)ccn1)[C@H]1CCN2C1)C(F)(F)F` [Example 74, (4S)—N5-(4-((R)-2,3-dihydroxypropoxy)pyridin-2-yl)-N7-((R)-1,1,1-trifluoropropan-2-yl)-3,4-dihydro-1,4-methanopyrido[2,3-b][1,4]diazepine-5,7(2H)-dicarboxamide], the Emax is over 150%.

Take `C[C@@H](NC(=O)c1ccc2c(n1)N(C(=O)Nc1ncco1)[C@H]1CCN2C1)C(F)(F)F` [Example 75, (4S)—N5-(oxazol-2-yl)-N7-((R)-1,1,1-trifluoropropan-2-yl)-3,4-dihydro-1,4-methanopyrido[2,3-b][1,4]diazepine-5,7(2H)-dicarboxamide]: the Emax was over 150% and the “TRP Activity (EC1.5, concentration of test compound that results in 150% activation of SIRT1)” value is recorded as “A (EC1.5<1 μM)”.

With `Cc1ccc2c(NC(=O)N3c4nc(C(=O)N[C@H](C)C(F)(F)F)ccc4N4CC[C@H]3C4)n[nH]c2n1` [Example 76, (4S)—N5-(6-methyl-1H-pyrazolo[3,4-b]pyridin-3-yl)-N7-((R)-1,1,1-trifluoropropan-2-yl)-3,4-dihydro-1,4-methanopyrido[2,3-b][1,4]diazepine-5,7(2H)-dicarboxamide], the Emax is over 150% and the “TRP Activity (EC1.5, concentration of test compound that results in 150% activation of SIRT1)” value was “A (EC1.5<1 μM)”.

Take `C[C@@H](NC(=O)c1ccc2c(n1)N(C(=O)Nc1cccnn1)[C@H]1CCN2C1)C(F)(F)F` [Example 77, (4S)—N5-(pyridazin-3-yl)-N7-((R)-1,1,1-trifluoropropan-2-yl)-3,4-dihydro-1,4-methanopyrido[2,3-b][1,4]diazepine-5,7(2H)-dicarboxamide]: the Emax was over 150% and the “TRP Activity (EC1.5, concentration of test compound that results in 150% activation of SIRT1)” value is “A (EC1.5<1 μM)”.

On to `O=C(NC1CC1)c1ccc2c(n1)N(C(=O)Nc1cc(-c3cnco3)ccn1)[C@H]1CCN2C1` [Example 78, (4S)—N7-cyclopropyl-N5-(4-(oxazol-5-yl)pyridin-2-yl)-3,4-dihydro-1,4-methanopyrido[2,3-b][1,4]diazepine-5,7(2H)-dicarboxamide], for which the Emax is over 150% and the “TRP Activity (EC1.5, concentration of test compound that results in 150% activation of SIRT1)” value is given as “A (EC1.5<1 μM)”.

As to `O=C(NCCC(F)(F)F)c1ccc2c(n1)N(C(=O)Nc1ccc(F)cn1)[C@H]1CCN2C1` [Example 79, (4S)—N5-(5-fluoropyridin-2-yl)-N7-(3,3,3-trifluoropropyl)-3,4-dihydro-1,4-methanopyrido[2,3-b][1,4]diazepine-5,7(2H)-dicarboxamide], the Emax is over 150% and the “TRP Activity (EC1.5, concentration of test compound that results in 150% activation of SIRT1)” value is recorded as “A (EC1.5<1 μM)”.

In the case of `CC(C)[C@@H](C)NC(=O)c1ccc2c(n1)N(C(=O)Nc1ccc(F)cn1)[C@H]1CCN2C1` [Example 80, (4S)—N5-(5-fluoropyridin-2-yl)-N7-((R)-3-methylbutan-2-yl)-3,4-dihydro-1,4-methanopyrido[2,3-b][1,4]diazepine-5,7(2H)-dicarboxamide], the Emax is over 150% and the “TRP Activity (EC1.5, concentration of test compound that results in 150% activation of SIRT1)” value was “A (EC1.5<1 μM)”.

Turning to `O=C(NC[C@H](O)C(F)(F)F)c1ccc2c(n1)N(C(=O)Nc1ccc(F)cn1)[C@H]1CCN2C1` [Example 81, (4S)—N5-(5-fluoropyridin-2-yl)-N7-((S)-3,3,3-trifluoro-2-hydroxypropyl)-3,4-dihydro-1,4-methanopyrido[2,3-b][1,4]diazepine-5,7(2H)-dicarboxamide], the Emax was over 150% and the “TRP Activity (EC1.5, concentration of test compound that results in 150% activation of SIRT1)” value is listed as “A (EC1.5<1 μM)”.

With `O=C(N[C@H](CO)C(F)(F)F)c1ccc2c(n1)N(C(=O)Nc1ccc(F)cn1)[C@H]1CCN2C1` [Example 82, (4S)—N5-(5-fluoropyridin-2-yl)-N7-((R)-1,1,1-trifluoro-3-hydroxypropan-2-yl)-3,4-dihydro-1,4-methanopyrido[2,3-b][1,4]diazepine-5,7(2H)-dicarboxamide], the Emax was over 150% and the “TRP Activity (EC1.5, concentration of test compound that results in 150% activation of SIRT1)” value was “A (EC1.5<1 μM)”.

`O=C(NCC(F)(F)F)c1ccc2c(n1)N(C(=O)Nc1cc(-c3cnco3)ccn1)[C@H]1CCN2C1` [Example 83, (4S)—N5-(4-(oxazol-5-yl)pyridin-2-yl)-N7-(2,2,2-trifluoroethyl)-3,4-dihydro-1,4-methanopyrido[2,3-b][1,4]diazepine-5,7(2H)-dicarboxamide]: the Emax is over 150% and the “TRP Activity (EC1.5, concentration of test compound that results in 150% activation of SIRT1)” value is “A (EC1.5<1 μM)”.

Regarding `Cc1nn(C)cc1-c1ccnc(NC(=O)N2c3nc(C(=O)N[C@H](C)C(F)(F)F)ccc3N3CC[C@H]2C3)c1` [Example 84, (4S)—N5-(4-(1,3-dimethyl-1H-pyrazol-4-yl)pyridin-2-yl)-N7-((R)-1,1,1-trifluoropropan-2-yl)-3,4-dihydro-1,4-methanopyrido[2,3-b][1,4]diazepine-5,7(2H)-dicarboxamide], the Emax is over 150% and the “TRP Activity (EC1.5, concentration of test compound that results in 150% activation of SIRT1)” value is reported as “A (EC1.5<1 μM)”.

With `C[C@@H](NC(=O)c1ccc2c(n1)N(C(=O)Nc1cc(-c3ccn(C)n3)ccn1)[C@H]1CCN2C1)C(F)(F)F` [Example 85, (4S)—N5-(4-(1-methyl-1H-pyrazol-3-yl)pyridin-2-yl)-N7-((R)-1,1,1-trifluoropropan-2-yl)-3,4-dihydro-1,4-methanopyrido[2,3-b][1,4]diazepine-5,7(2H)-dicarboxamide], the Emax was over 150% and the “TRP Activity (EC1.5, concentration of test compound that results in 150% activation of SIRT1)” value was “A (EC1.5<1 μM)”.

For `C[C@@H](NC(=O)c1ccc2c(n1)N(C(=O)Nc1cc(-c3cncn3C)ccn1)[C@H]1CCN2C1)C(F)(F)F` [Example 86, (4S)—N5-(4-(1-methyl-1H-imidazol-5-yl)pyridin-2-yl)-N7-((R)-1,1,1-trifluoropropan-2-yl)-3,4-dihydro-1,4-methanopyrido[2,3-b][1,4]diazepine-5,7(2H)-dicarboxamide], the Emax is over 150% and the “TRP Activity (EC1.5, concentration of test compound that results in 150% activation of SIRT1)” value is on record as “A (EC1.5<1 μM)”.
